Assay results taken from patent publication US6268366A, “Amide derivatives of substituted quinoxaline 2,3-diones as glutamate receptor antagonists” (Warner-Lambert Company, priority 2000, dated 2001).

Legend:
AMPA receptors = experiment: AMPA receptor binding affinity (Honore et al.)
[1] = target: kainate site (non-NMDA receptor); experiment: kainate site (non-NMDA receptor) binding affinity (London and Coyle)
[2] = target: T1, glycine (GLY) site of the NMDA receptor (Rattus norvegicus, UniProt P35439); experiment: glycine (GLY) site of the NMDA receptor binding affinity (Jones et al.)
T1 construct: measured as described in Jones S. M., et al., Pharmacol. Methods, 1989;21:161; from tissue

CF-1 strain mice = experiment: maximal electroshock (MES) assay in CF-1 strain mice, corneal electrodes; format: in vivo; settings: for Ataxic (%) / Protected (%): MES, mice IV; for duration of action in maximal electroshock time course compared with PNQX: mice, 30 mg/kg IV, versus standard PNQX, FIGS. 1 and 2
Description: Additionally, as a preliminary indicator of in vivo CNS activity related to anticonvulsant activity and potential neuroprotection, a maximal electroshock assay in CF-1 strain mice (20-25 g) was performed with corneal electrodes by conventional methods as described previously (Krall, et al., Epilepsia, 1988;19:409-428).
FIGS. […] The graph is the percent of mice protected versus the time in minutes.

| Structure (SMILES) | IC50 (AMPA receptors) [nM] | IC50 KA [1] [nM] | IC50 [2] [nM] | further results |
| --- | --- | --- | --- | --- |
| CC(=O)N(C)Cc1c(C)c([N+](=O)[O-])cc2[nH]c(=O)c(=O)[nH]c12 [Compound 1, N-Methyl-N-(6-methyl-7-nitro-2,3-dioxo-1,2,3,4-tetrahydro-quinoxalin-5-ylmethyl)-acetamide] | 350 | 1660 | 30 | – |
| Cc1c([N+](=O)[O-])cc2[nH]c(=O)c(=O)[nH]c2c1CN(C)C(=O)C1CCCCC1 [Compound 3, Cyclohexanecarboxylic acid-methyl-(6-methyl-7-nitro-2,3-dioxo-1,2,3,4-tetrahydro-quinoxalin-5-ylmethyl)amide] | 910 | 3210 | 300 | – |
| Cc1c([N+](=O)[O-])cc2[nH]c(=O)c(=O)[nH]c2c1CN(C)C(=O)CC1CCCCC1 [Compound 4, 2-Cyclohexyl-N-methyl-N-(6-methyl-7-nitro-2,3-dioxo-1,2,3,4-tetrahydro-quinoxalin-5-ylmethyl)-acetamide] | 2050 | 2970 | 200 | – |
| Cc1c([N+](=O)[O-])cc2[nH]c(=O)c(=O)[nH]c2c1CN(C)C(=O)Cc1ccccc1 [Compound 5, N-methyl-N-(6-methyl-7-nitro-2,3-dioxo-1,2,3,4-tetrahydro-quinoxalin-5-ylmethyl)-2-phenyl-acetamide] | 350 | 590 | 20 | – |
| Cc1c([N+](=O)[O-])cc2[nH]c(=O)c(=O)[nH]c2c1CN(C)C(=O)c1ccccc1 [Compound 6, N-methyl-N-(6-methyl-7-nitro-2,3-dioxo-1,2,3,4-tetrahydro-quinoxalin-5-ylmethyl)-benzamide] | 1220 | 2770 | 30 | – |
| Cc1c([N+](=O)[O-])cc2[nH]c(=O)c(=O)[nH]c2c1CN(C)C(=O)c1ccc(Cl)cc1 [Compound 7, 4-Chloro-N-methyl-N-(6-Methyl-7-nitro-2,3-dioxo-1,2,3,4-tetrahydro-quinoxalin-5-ylmethyl)-benzamide] | 980 | 1980 | 40 | – |
| Cc1c([N+](=O)[O-])cc2[nH]c(=O)c(=O)[nH]c2c1CN(C)C(=O)c1ccc(C(F)(F)F)cc1 [Compound 8, N-Methyl-N-(6-Methyl-7-nitro-2,3-dioxo-1,2,3,4-tetrahydro-quinoxalin-5-ylmethyl)-4-trifluoromethyl-benzamide] | 1920 | 3700 | – | – |
| Cc1c([N+](=O)[O-])cc2[nH]c(=O)c(=O)[nH]c2c1CN(C)C(=O)c1ccc(Cl)c(Cl)c1 [Compound 9, 3,4-Dichloro-N-methyl-N-(6-methyl-7-nitro-2,3-dioxo-1,2,3,4-tetrahydro-quinoxalin-5-ylmethyl)-benzamide] | 1690 | 3450 | – | – |
| Cc1c([N+](=O)[O-])cc2[nH]c(=O)c(=O)[nH]c2c1CN(C)C(=O)c1ccc([N+](=O)[O-])cc1 [Compound 10, N-Methyl-N-(6-Methyl-7-nitro-2,3-dioxo-1,2,3,4-tetrahydro-quinoxalin-5-ylmethyl)-4-nitro-benzamide] | 1120 | 950 | – | – |
| Cc1c([N+](=O)[O-])cc2[nH]c(=O)c(=O)[nH]c2c1CN(C)C(=O)c1cccs1 [Compound 11, Thiophene-2-carboxylic acid-methyl-(6-methyl-7-nitro-2,3-dioxo-1,2,3,4-tetrahydro-quinoxalin-5-ylmethyl)-amide] | 460 | 1230 | 8 | Ataxic (%) (CF-1 strain mice; 5 min, 10 mg/kg): 0%; Protected (%) (CF-1 strain mice; 5 min, 10 mg/kg): 0%; Ataxic (%) (CF-1 strain mice; 5 min, 30 mg/kg): 40%; Protected (%) (CF-1 strain mice; 5 min, 30 mg/kg): 40%; Ataxic (%) (CF-1 strain mice; 15 min, 10 mg/kg): 0%; Protected (%) (CF-1 strain mice; 15 min, 10 mg/kg): 40%; Ataxic (%) (CF-1 strain mice; 15 min, 30 mg/kg): 60%; Protected (%) (CF-1 strain mice; 15 min, 30 mg/kg): 80%; Ataxic (%) (CF-1 strain mice; 30 min, 10 mg/kg): 0%; Protected (%) (CF-1 strain mice; 30 min, 10 mg/kg): 40%; Ataxic (%) (CF-1 strain mice; 30 min, 30 mg/kg): 20%; Protected (%) (CF-1 strain mice; 30 min, 30 mg/kg): 40%; Ataxic (%) (CF-1 strain mice; 60 min, 10 mg/kg): 0%; Protected (%) (CF-1 strain mice; 60 min, 10 mg/kg): 0%; Ataxic (%) (CF-1 strain mice; 60 min, 30 mg/kg): 20%; Protected (%) (CF-1 strain mice; 60 min, 30 mg/kg): 40%; duration of action in maximal electroshock time course compared with PNQX (CF-1 strain mice): extended duration of action |
| Cc1c([N+](=O)[O-])cc2[nH]c(=O)c(=O)[nH]c2c1CN(C)C(=O)c1ccco1 [Compound 12, Furan-2-carboxylic acid methyl-(6-methyl-7-nitro-2,3-dioxo-1,2,3,4-tetrahydro-quinoxalin-5-ylmethyl)-amide] | 380 | 1210 | 6 | Ataxic (%) (CF-1 strain mice; 3 min, 30 mg/kg): 40%; Protected (%) (CF-1 strain mice; 3 min, 30 mg/kg): 40%; Ataxic (%) (CF-1 strain mice; 15 min, 10 mg/kg): 0%; Protected (%) (CF-1 strain mice; 15 min, 10 mg/kg): 40%; Ataxic (%) (CF-1 strain mice; 15 min, 30 mg/kg): 60%; Protected (%) (CF-1 strain mice; 15 min, 30 mg/kg): 80%; Protected (%) (CF-1 strain mice; 30 min, 10 mg/kg): 40%; Ataxic (%) (CF-1 strain mice; 30 min, 30 mg/kg): 20%; Protected (%) (CF-1 strain mice; 30 min, 30 mg/kg): 40%; Ataxic (%) (CF-1 strain mice; 60 min, 30 mg/kg): 20%; Protected (%) (CF-1 strain mice; 60 min, 30 mg/kg): 40%; duration of action in maximal electroshock time course compared with PNQX (CF-1 strain mice): extended duration of action |
| Cc1c([N+](=O)[O-])cc2[nH]c(=O)c(=O)[nH]c2c1CN(C)C(=O)c1cc2ccccc2s1 [Compound 13, Benzo[b]thiophene-2-carboxylic acid methyl-(6-methyl-7-nitro-2,3-dioxo-1,2,3,4-tetrahydro-quinoxalin-5-ylmethyl)-amide] | 620 | 5980 | 40 | – |
| COc1ccc(C(=O)N(C)Cc2c(C)c([N+](=O)[O-])cc3[nH]c(=O)c(=O)[nH]c23)cc1 [Compound 14, 4-Methoxy-N-methyl-N-(6-methyl-7-nitro-2,3-dioxo-1,2,3,4-tetrahydro-quinoxalin-5-ylmethyl)-benzamide] | 520 | 850 | 5 | – |
| CCOC(=O)N(C)Cc1c(C)c([N+](=O)[O-])cc2[nH]c(=O)c(=O)[nH]c12 [Compound 15, Methyl-(6-methyl-7-nitro-2,3-dioxo-1,2,3,4-tetrahydro-quinoxalin-5-ylmethyl)-carbamic acid ethyl ester] | 210 | 290 | 100 | Ataxic (%) (CF-1 strain mice; 10 min, 3 mg/kg): 0%; Protected (%) (CF-1 strain mice; 10 min, 3 mg/kg): 0%; Ataxic (%) (CF-1 strain mice; 10 min, 10 mg/kg): 0%; Protected (%) (CF-1 strain mice; 10 min, 10 mg/kg): 40%; Ataxic (%) (CF-1 strain mice; 30 min, 3 mg/kg): 0%; Protected (%) (CF-1 strain mice; 30 min, 3 mg/kg): 0%; Ataxic (%) (CF-1 strain mice; 30 min, 10 mg/kg): 0%; Protected (%) (CF-1 strain mice; 30 min, 10 mg/kg): 60% |
